Literature values as cited in patent publication US9932302B1, “N-phenyl and N-benzyl enaminones and methods for using same” (University of Maryland Eastern Shore, priority 2013, dated 2018).

Key:
Details in all cases: pre-clinical pharmacological profile
[1] = tested on: subcutaneous Metrazol (sc Met) induced seizure
[2] = tested on: maximal electroshock seizure (MES)
6 Hz psychomotor seizure = tested on: 6 Hz psychomotor seizure

Structure (SMILES) | scPTZ activity profile of current AED [1] | MES activity profile of current AED [2] | 6 Hz activity profile of current AED (6 Hz psychomotor seizure)
O=C1NC(=O)C(c2ccccc2)(c2ccccc2)N1 [phenytoin] | active | active | 
CC[C@@H](C(N)=O)N1CCCC1=O [levetiracetam] |  |  | active
